Experimental data published in ChEMBL document CHEMBL3991601, “The target landscape of clinical kinase drugs” (Science, 2017).
Active and inactive are the calls of the source. For most assays here, no stated cut-off is given here; in the data, actives have a measured Kd and inactives only a lower limit.

Each compound was assayed against T1, TGF-beta receptor type-1 (Homo sapiens, UniProt P36897). Conditions: not given.
T1 sequence (P36897 whole entry): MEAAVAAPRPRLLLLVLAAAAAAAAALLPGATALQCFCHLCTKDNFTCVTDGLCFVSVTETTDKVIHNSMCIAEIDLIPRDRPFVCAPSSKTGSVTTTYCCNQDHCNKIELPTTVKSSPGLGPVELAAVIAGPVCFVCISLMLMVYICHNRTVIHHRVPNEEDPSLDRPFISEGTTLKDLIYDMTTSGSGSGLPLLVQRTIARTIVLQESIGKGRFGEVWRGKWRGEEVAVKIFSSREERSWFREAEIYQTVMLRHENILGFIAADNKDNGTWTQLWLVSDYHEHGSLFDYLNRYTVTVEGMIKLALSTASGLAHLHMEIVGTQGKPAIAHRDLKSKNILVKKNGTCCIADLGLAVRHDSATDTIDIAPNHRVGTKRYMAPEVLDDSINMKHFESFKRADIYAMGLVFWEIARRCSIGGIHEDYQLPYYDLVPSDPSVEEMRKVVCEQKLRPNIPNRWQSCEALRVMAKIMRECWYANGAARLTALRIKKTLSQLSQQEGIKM

How did the Kd turn out when COc1cc(N2CCC(N3CCN(C)CC3)CC2)ccc1Nc1ncnc(Nc2ccccc2S(=O)(=O)C(C)C)n1 [ASP-3026] was run?
Its Kd is > 30 µM (inactive).

CC[C@H](Nc1ncnc2[nH]cnc12)c1nc2cccc(F)c2c(=O)n1-c1ccccc1 [IDELALISIB] was tested. Which Kd did it give?
The Kd was > 30 µM (inactive).

How did the Kd turn out when COC(=O)[C@@]1(O)C[C@H]2O[C@]1(C)n1c3ccccc3c3c4c(c5c6ccccc6n2c5c31)C(=O)NC4 [K-252A] was run?
Its Kd is 2.18 µM (active).

Each compound was assayed against Rho-associated protein kinase 2 (Homo sapiens, UniProt O75116). Conditions: not given.
Chain of Rho-associated protein kinase 2 (O75116 whole entry): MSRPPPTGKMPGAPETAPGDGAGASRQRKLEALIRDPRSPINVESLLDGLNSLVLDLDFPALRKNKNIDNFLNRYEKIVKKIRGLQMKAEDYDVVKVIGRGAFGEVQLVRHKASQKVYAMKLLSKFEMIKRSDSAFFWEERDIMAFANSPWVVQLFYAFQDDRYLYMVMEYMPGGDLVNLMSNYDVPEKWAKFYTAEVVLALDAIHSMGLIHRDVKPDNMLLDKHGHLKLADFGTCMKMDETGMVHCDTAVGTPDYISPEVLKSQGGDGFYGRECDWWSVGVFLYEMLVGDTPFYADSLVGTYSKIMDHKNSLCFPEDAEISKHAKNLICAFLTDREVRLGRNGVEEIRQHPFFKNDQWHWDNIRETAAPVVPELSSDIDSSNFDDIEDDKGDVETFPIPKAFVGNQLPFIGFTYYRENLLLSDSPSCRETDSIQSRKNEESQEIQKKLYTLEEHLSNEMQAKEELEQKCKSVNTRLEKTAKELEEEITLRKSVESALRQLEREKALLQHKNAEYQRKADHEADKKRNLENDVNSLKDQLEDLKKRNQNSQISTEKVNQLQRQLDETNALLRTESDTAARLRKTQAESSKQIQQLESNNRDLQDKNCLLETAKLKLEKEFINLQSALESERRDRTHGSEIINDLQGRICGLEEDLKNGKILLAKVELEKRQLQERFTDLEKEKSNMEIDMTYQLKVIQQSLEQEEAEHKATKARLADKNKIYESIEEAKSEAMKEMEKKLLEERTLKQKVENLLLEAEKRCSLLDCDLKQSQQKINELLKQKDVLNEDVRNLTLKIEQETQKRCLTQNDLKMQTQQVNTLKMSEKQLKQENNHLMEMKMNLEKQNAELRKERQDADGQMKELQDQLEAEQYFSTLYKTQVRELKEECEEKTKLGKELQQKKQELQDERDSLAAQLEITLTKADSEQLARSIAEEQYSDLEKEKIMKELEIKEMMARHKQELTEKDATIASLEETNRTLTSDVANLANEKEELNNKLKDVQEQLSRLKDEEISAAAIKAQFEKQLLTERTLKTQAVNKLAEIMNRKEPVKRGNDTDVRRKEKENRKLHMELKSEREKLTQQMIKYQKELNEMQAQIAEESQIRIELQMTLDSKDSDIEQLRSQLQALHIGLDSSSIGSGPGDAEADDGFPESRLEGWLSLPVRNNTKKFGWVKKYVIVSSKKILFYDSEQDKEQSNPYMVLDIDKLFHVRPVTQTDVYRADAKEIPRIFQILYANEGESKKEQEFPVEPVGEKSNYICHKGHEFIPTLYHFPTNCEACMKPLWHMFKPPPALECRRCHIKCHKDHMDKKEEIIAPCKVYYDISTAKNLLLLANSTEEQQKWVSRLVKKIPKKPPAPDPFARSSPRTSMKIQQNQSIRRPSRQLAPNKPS

COc1cc(N2CCC(N3CCN(C)CC3)CC2)ccc1Nc1ncnc(Nc2ccccc2S(=O)(=O)C(C)C)n1 [ASP-3026] was tested. Which Kd did it give?
Its Kd is > 30 µM (inactive).

With CC[C@H](Nc1ncnc2[nH]cnc12)c1nc2cccc(F)c2c(=O)n1-c1ccccc1 [IDELALISIB] as the compound, how does the Kd read?
The Kd was > 30 µM (inactive).

COC(=O)[C@@]1(O)C[C@H]2O[C@]1(C)n1c3ccccc3c3c4c(c5c6ccccc6n2c5c31)C(=O)NC4 [K-252A] was tested. Which Kd did it give?
Its Kd is > 30 µM (inactive).

These compounds were tested against Cyclin-dependent kinase 6 (Homo sapiens, UniProt Q00534). Conditions: not given.
Chain of Cyclin-dependent kinase 6 (Q00534 whole entry): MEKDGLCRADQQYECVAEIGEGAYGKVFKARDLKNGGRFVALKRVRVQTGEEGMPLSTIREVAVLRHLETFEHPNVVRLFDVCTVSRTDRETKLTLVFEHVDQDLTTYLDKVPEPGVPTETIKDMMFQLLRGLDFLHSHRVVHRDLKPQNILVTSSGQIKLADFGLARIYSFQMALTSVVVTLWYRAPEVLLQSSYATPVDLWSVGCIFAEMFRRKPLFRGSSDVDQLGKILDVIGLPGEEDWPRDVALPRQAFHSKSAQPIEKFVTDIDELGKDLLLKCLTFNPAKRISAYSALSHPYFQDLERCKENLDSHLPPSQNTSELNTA

How did the Kd turn out when COc1cc(N2CCC(N3CCN(C)CC3)CC2)ccc1Nc1ncnc(Nc2ccccc2S(=O)(=O)C(C)C)n1 [ASP-3026] was run?
Its Kd is > 30 µM (inactive).

With CC[C@H](Nc1ncnc2[nH]cnc12)c1nc2cccc(F)c2c(=O)n1-c1ccccc1 [IDELALISIB] as the compound, how does the Kd read?
Its Kd is > 30 µM (inactive).

Which Kd does the source give for COC(=O)[C@@]1(O)C[C@H]2O[C@]1(C)n1c3ccccc3c3c4c(c5c6ccccc6n2c5c31)C(=O)NC4 [K-252A] here?
The Kd was 0.399 µM (active).

These compounds were tested against Dual specificity tyrosine-phosphorylation-regulated kinase 1A (Homo sapiens, UniProt Q13627). Conditions: not given.

Which Kd does the source give for COc1cc(N2CCC(N3CCN(C)CC3)CC2)ccc1Nc1ncnc(Nc2ccccc2S(=O)(=O)C(C)C)n1 [ASP-3026] here?
Its Kd is > 30 µM (inactive).

For CC[C@H](Nc1ncnc2[nH]cnc12)c1nc2cccc(F)c2c(=O)n1-c1ccccc1 [IDELALISIB], which Kd is on record?
Its Kd is > 30 µM (inactive).

Which Kd does the source give for COC(=O)[C@@]1(O)C[C@H]2O[C@]1(C)n1c3ccccc3c3c4c(c5c6ccccc6n2c5c31)C(=O)NC4 [K-252A] here?
The Kd was 4.85 µM (active).

What follows are compounds tested against Glycogen synthase kinase-3 beta (Homo sapiens, UniProt P49841). Conditions: not given.
Chain of Glycogen synthase kinase-3 beta (P49841 whole entry): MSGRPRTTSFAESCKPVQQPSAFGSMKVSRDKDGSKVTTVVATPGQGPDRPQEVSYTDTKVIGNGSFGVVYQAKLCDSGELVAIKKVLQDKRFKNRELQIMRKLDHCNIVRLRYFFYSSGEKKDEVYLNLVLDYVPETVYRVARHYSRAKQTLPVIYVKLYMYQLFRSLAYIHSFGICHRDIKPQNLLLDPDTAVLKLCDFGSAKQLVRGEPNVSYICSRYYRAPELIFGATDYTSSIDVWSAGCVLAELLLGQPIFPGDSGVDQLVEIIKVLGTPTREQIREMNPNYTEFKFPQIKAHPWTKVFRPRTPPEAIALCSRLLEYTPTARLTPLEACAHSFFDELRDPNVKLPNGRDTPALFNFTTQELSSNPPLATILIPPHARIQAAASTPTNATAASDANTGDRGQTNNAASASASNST

COc1cc(N2CCC(N3CCN(C)CC3)CC2)ccc1Nc1ncnc(Nc2ccccc2S(=O)(=O)C(C)C)n1 [ASP-3026] was tested. Which Kd did it give?
Its Kd is > 30 µM (inactive).

How did the Kd turn out when CC[C@H](Nc1ncnc2[nH]cnc12)c1nc2cccc(F)c2c(=O)n1-c1ccccc1 [IDELALISIB] was run?
The Kd was > 30 µM (inactive).

With COC(=O)[C@@]1(O)C[C@H]2O[C@]1(C)n1c3ccccc3c3c4c(c5c6ccccc6n2c5c31)C(=O)NC4 [K-252A] as the compound, how does the Kd read?
The Kd was > 30 µM (inactive).

These compounds were tested against T2, RNA cytidine acetyltransferase (Homo sapiens, UniProt Q9H0A0). Conditions: not given.
T2 sequence (Q9H0A0 whole entry): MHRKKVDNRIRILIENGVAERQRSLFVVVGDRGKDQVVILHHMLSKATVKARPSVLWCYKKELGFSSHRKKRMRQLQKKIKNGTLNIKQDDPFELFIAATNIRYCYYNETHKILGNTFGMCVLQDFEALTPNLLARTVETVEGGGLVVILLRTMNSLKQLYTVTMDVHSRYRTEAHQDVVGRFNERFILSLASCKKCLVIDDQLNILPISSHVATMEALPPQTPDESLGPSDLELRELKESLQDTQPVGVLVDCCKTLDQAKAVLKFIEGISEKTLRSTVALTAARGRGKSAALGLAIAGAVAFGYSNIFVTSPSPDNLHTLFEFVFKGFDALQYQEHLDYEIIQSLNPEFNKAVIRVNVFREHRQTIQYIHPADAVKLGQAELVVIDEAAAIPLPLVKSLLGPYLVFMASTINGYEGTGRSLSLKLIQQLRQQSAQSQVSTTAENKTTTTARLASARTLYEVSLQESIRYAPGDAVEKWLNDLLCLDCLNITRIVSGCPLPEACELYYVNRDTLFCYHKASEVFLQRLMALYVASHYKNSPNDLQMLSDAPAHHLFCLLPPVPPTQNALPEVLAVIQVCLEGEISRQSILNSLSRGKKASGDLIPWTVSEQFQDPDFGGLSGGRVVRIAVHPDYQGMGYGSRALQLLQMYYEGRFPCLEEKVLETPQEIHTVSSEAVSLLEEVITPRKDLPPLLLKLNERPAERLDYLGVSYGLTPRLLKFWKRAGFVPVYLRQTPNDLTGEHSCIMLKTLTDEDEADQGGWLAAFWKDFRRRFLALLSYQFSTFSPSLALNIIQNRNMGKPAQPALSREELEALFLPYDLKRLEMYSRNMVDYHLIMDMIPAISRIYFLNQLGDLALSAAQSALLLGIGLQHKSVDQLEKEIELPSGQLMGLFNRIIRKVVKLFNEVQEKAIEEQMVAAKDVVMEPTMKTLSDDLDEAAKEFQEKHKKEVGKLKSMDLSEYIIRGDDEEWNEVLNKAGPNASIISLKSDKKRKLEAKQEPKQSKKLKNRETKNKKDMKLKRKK

With COc1cc(N2CCC(N3CCN(C)CC3)CC2)ccc1Nc1ncnc(Nc2ccccc2S(=O)(=O)C(C)C)n1 [ASP-3026] as the compound, how does the Kd read?
The Kd was > 30 µM (inactive).

Which Kd does the source give for CC[C@H](Nc1ncnc2[nH]cnc12)c1nc2cccc(F)c2c(=O)n1-c1ccccc1 [IDELALISIB] here?
The Kd was > 30 µM (inactive).

With COC(=O)[C@@]1(O)C[C@H]2O[C@]1(C)n1c3ccccc3c3c4c(c5c6ccccc6n2c5c31)C(=O)NC4 [K-252A] as the compound, how does the Kd read?
Its Kd is > 30 µM (inactive).

What follows are compounds tested against Ribosomal protein S6 kinase beta-1 (Homo sapiens, UniProt P23443). Conditions: not given.
Chain of Ribosomal protein S6 kinase beta-1 (P23443 whole entry): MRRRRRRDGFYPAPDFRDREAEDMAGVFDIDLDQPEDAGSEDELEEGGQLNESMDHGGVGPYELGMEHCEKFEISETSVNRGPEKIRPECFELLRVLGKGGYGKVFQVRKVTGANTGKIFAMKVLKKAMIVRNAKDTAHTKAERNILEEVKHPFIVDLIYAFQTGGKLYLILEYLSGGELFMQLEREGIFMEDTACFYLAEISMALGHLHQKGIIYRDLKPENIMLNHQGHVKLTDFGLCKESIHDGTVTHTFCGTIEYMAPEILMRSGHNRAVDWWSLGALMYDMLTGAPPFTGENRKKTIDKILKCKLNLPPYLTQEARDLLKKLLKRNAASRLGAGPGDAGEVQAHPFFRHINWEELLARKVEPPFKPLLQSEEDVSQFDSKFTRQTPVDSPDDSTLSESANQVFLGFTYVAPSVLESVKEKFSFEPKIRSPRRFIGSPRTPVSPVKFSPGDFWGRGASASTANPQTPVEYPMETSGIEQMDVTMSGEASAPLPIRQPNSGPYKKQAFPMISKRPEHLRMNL

COc1cc(N2CCC(N3CCN(C)CC3)CC2)ccc1Nc1ncnc(Nc2ccccc2S(=O)(=O)C(C)C)n1 [ASP-3026] was tested. Which Kd did it give?
The Kd was > 30 µM (inactive).

For CC[C@H](Nc1ncnc2[nH]cnc12)c1nc2cccc(F)c2c(=O)n1-c1ccccc1 [IDELALISIB], which Kd is on record?
The Kd was > 30 µM (inactive).

For COC(=O)[C@@]1(O)C[C@H]2O[C@]1(C)n1c3ccccc3c3c4c(c5c6ccccc6n2c5c31)C(=O)NC4 [K-252A], which Kd is on record?
The Kd was > 30 µM (inactive).

Each compound was assayed against T3, Uncharacterized protein FLJ45252 (Homo sapiens, UniProt Q6ZSR9). Conditions: read-out: Kd apparent; k-562, colo 205, sk-n-be(2) and mv-4-11.
T3 sequence (Q6ZSR9 whole entry): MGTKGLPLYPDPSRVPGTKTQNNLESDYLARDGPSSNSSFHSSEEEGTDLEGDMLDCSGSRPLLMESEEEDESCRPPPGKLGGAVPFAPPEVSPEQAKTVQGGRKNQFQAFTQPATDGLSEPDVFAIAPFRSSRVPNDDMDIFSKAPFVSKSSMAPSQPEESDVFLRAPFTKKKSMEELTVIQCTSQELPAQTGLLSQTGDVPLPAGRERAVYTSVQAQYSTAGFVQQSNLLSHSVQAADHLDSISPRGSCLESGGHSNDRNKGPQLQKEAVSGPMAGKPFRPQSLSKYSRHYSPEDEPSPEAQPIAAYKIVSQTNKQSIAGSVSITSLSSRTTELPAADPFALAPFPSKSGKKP

How did the Kd turn out when COc1cc(N2CCC(N3CCN(C)CC3)CC2)ccc1Nc1ncnc(Nc2ccccc2S(=O)(=O)C(C)C)n1 [ASP-3026] was run?
The Kd was 0.822 µM (active).

With COC(=O)[C@@]1(O)C[C@H]2O[C@]1(C)n1c3ccccc3c3c4c(c5c6ccccc6n2c5c31)C(=O)NC4 [K-252A] as the compound, how does the Kd read?
The Kd was 0.021 µM (active).

What follows are compounds tested against T4, Signal recognition particle receptor subunit alpha (Homo sapiens, UniProt P08240). Conditions: not given.
T4 sequence (P08240 whole entry): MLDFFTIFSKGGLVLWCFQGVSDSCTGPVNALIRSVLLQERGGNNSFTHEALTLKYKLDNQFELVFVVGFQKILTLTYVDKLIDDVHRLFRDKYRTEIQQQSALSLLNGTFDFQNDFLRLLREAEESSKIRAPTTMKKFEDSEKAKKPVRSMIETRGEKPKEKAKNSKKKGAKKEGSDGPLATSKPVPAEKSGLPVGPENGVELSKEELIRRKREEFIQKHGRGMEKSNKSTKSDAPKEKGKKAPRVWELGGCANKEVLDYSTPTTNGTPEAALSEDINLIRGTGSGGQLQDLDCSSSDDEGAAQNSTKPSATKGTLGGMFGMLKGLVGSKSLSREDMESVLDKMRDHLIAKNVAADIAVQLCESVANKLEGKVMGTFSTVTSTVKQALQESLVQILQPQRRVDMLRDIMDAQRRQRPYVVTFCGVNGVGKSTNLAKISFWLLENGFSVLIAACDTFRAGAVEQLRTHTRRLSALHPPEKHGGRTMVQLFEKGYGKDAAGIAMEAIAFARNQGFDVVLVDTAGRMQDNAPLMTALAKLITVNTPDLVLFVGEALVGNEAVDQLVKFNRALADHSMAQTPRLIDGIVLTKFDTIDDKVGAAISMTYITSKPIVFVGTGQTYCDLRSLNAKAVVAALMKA

COc1cc(N2CCC(N3CCN(C)CC3)CC2)ccc1Nc1ncnc(Nc2ccccc2S(=O)(=O)C(C)C)n1 [ASP-3026] was tested. Which Kd did it give?
The Kd was > 30 µM (inactive).

With CC[C@H](Nc1ncnc2[nH]cnc12)c1nc2cccc(F)c2c(=O)n1-c1ccccc1 [IDELALISIB] as the compound, how does the Kd read?
Its Kd is > 30 µM (inactive).

These compounds were tested against Platelet-derived growth factor receptor beta (Homo sapiens, UniProt P09619). Conditions: not given.
Chain of Platelet-derived growth factor receptor beta (P09619 whole entry): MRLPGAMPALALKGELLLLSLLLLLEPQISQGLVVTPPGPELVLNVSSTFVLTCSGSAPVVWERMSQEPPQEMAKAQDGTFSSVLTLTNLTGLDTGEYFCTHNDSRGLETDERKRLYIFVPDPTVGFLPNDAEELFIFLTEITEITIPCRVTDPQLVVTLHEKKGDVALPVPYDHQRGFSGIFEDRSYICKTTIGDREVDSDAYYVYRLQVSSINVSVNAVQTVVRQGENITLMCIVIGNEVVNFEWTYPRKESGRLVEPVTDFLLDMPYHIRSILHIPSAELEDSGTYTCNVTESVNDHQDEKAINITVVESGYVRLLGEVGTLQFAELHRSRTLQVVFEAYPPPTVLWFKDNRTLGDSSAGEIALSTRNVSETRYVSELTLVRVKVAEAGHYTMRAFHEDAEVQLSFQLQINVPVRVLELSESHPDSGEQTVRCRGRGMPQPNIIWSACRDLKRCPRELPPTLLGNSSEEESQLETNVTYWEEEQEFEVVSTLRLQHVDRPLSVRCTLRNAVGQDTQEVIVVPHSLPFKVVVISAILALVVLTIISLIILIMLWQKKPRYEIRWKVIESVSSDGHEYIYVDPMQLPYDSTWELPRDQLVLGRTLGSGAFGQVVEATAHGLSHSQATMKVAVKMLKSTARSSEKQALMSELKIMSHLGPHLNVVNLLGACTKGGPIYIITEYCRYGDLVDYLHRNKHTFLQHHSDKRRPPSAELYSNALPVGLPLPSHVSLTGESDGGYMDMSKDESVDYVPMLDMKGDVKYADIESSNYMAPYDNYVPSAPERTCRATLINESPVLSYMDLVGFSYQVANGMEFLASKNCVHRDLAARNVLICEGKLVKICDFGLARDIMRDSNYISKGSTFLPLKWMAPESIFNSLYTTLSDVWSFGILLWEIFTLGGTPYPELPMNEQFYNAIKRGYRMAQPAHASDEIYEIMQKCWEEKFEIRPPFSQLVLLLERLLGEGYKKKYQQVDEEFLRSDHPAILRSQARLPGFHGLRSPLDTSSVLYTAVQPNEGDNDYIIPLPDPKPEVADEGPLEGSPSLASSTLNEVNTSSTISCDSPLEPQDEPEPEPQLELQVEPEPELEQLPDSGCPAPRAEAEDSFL

COc1cc(N2CCC(N3CCN(C)CC3)CC2)ccc1Nc1ncnc(Nc2ccccc2S(=O)(=O)C(C)C)n1 [ASP-3026] was tested. Which Kd did it give?
Its Kd is > 30 µM (inactive).

CC[C@H](Nc1ncnc2[nH]cnc12)c1nc2cccc(F)c2c(=O)n1-c1ccccc1 [IDELALISIB] was tested. Which Kd did it give?
Its Kd is > 30 µM (inactive).

COC(=O)[C@@]1(O)C[C@H]2O[C@]1(C)n1c3ccccc3c3c4c(c5c6ccccc6n2c5c31)C(=O)NC4 [K-252A] was tested. Which Kd did it give?
Its Kd is 1.01 µM (active).

Each compound was assayed against Mitogen-activated protein kinase 3 (Homo sapiens, UniProt P27361). Conditions: not given.
Chain of Mitogen-activated protein kinase 3 (P27361 whole entry): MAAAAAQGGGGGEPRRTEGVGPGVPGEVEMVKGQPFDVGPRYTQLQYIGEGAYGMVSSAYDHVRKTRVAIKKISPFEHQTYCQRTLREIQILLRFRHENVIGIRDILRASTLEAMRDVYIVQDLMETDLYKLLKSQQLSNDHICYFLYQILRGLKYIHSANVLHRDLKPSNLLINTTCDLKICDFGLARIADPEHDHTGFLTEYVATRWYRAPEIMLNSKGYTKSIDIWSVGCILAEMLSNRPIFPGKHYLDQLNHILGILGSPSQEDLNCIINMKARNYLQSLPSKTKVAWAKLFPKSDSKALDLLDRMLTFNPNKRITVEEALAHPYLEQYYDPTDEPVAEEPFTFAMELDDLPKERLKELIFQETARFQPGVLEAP

How did the Kd turn out when COc1cc(N2CCC(N3CCN(C)CC3)CC2)ccc1Nc1ncnc(Nc2ccccc2S(=O)(=O)C(C)C)n1 [ASP-3026] was run?
Its Kd is > 30 µM (inactive).

CC[C@H](Nc1ncnc2[nH]cnc12)c1nc2cccc(F)c2c(=O)n1-c1ccccc1 [IDELALISIB] was tested. Which Kd did it give?
Its Kd is > 30 µM (inactive).

For COC(=O)[C@@]1(O)C[C@H]2O[C@]1(C)n1c3ccccc3c3c4c(c5c6ccccc6n2c5c31)C(=O)NC4 [K-252A], which Kd is on record?
Its Kd is > 30 µM (inactive).
